Measurements taken from article PMC8349882 (Molecular cell, 2021).

Biological target: GLR3.4-S1S2 (Arabidopsis thaliana, UniProt Q8GXJ4, DEL602-708)
Test: crystal structure
Assay type: binding
Conditions: endogenous ligand from expression, none added

Sequence of GLR3.4-S1S2 (Q8GXJ4 492-601, stated change not applied): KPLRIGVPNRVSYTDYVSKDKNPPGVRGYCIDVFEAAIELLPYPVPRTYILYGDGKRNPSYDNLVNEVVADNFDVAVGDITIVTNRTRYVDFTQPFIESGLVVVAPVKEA
Sequence of GLR3.4-S1S2 (Q8GXJ4 709-842, stated change not applied): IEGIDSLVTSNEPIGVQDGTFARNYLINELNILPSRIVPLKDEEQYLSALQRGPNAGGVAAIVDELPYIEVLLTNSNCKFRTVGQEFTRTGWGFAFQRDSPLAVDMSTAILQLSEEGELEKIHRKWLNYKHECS

Structure (SMILES): N[C@@H](CO)C(=O)O [serine]
- crystal structure: The serine-bound LBD structure was solved without adding the ligand to the protein
